Experimental data from ChEMBL document CHEMBL6071196, “Semisynthetic Tetramate-Containing Fungal Metabolites with Activity against Trichomonas vaginalis and Mycoplasma genitalium” (ACS Med Chem Lett, 2024).
pEC50: −log10 of the molar value. ≈ marks a conversion by molar mass, not a printed value.

Assays:
[1] = Selectivity index, ratio of IC50 for cytotoxicity against african green monkey Vero cells incubated for 48 hrs by celltiter blue assay to MIC for antibacterial activity against Mycoplasma genitalium G37C assessed as bacterial growth inhibition incubated for 7 days by phenol red reagent based microbroth dilution assay; type: toxicity, cell-based; details: read-out: Selectivity Index
Mycoplasma genitalium = assay: Antibacterial activity against Mycoplasma genitalium G37C assessed as bacterial growth inhibition incubated for 7 days by phenol red reagent based microbroth dilution assay; type: functional; details: Mycoplasmoides genitalium, 168 h, time 7 day
Trichomonas vaginalis = assay: Anti-trichomonal activity against Trichomonas vaginalis assessed as inhibition of parasite growth incubated for 18 hrs; type: functional, organism-based
[2] = Selectivity index, ratio of IC50 for cytotoxicity against african green monkey Vero cells incubated for 48 hrs by celltiter blue assay to EC50 for anti-trichomonal activity against Trichomonas vaginalis assessed as inhibition of parasite growth incubated for 18 hrs; type: toxicity, cell-based; details: read-out: Ratio IC50/EC50

| SMILES | selectivity ratio at 48 h [1] | MIC90 (Mycoplasma genitalium) [µM] | pEC50 (Trichomonas vaginalis) | selectivity ratio at 48 h [2] |
| --- | --- | --- | --- | --- |
| C#CCOC[C@@H]1C(=O)/C(=C(/O)[C@@]2(C)[C@@H](/C=C/C=C/C[C@@H](C)OCC#C)C(C)=C[C@H]3C[C@@H](C)CC[C@@H]32)C(=O)N1C | 14 | 5.8 (≈ 3.1 µg/mL) | < 5.00 | – |
| C/C=C/C=C/[C@H]1C(C)=C[C@H]2C[C@@H](C)CC[C@@H]2[C@@]1(C)/C(O)=C1\C(=O)[C@H](COCc2cn(Cc3c[nH]c4ccccc34)nn2)N(C)C1=O | 2.5 | 9.9 (≈ 6.18 µg/mL) | < 5.00 | – |
| C/C=C/C=C/[C@H]1C(C)=C[C@H]2C[C@@H](C)CC[C@@H]2[C@@]1(C)/C(O)=C1\C(=O)[C@@H](COCc2cn(CCCCO)nn2)N(C)C1=O | – | 11.1 (≈ 6.29 µg/mL) | < 5.00 | – |
| C/C=C/C=C/[C@H]1C(C)=C[C@H]2C[C@@H](C)CC[C@@H]2[C@@]1(C)/C(O)=C1\C(=O)[C@H](COCc2cn(CC3CCCCO3)nn2)N(C)C1=O (stereo partly specified) | 4.4 | 5.2 (≈ 3.08 µg/mL) | < 5.00 | – |
| CCCCC[C@H]1[C@H](C)C[C@H]2C[C@@H](C)CC[C@@H]2[C@@]1(C)/C(O)=C1\C(=O)[C@@H](CO)N(C)C1=O | 51.6 | 3.8 (≈ 1.59 µg/mL) | 5.57 | 72.6 |
| C/C=C/C=C/[C@H]1C(C)=C[C@H]2C[C@@H](C)CC[C@@H]2[C@@]1(C)/C(O)=C1/C(=O)N[C@@H](CO)C1=O | – | 62.6 (≈ 25 µg/mL) | < 5.00 | – |
| CC1=C[C@H]2C[C@@H](C)CC[C@@H]2[C@@](C)(/C(O)=C2\C(=O)[C@@H](COCc3cn(CCO)nn3)N(C)C2=O)[C@H]1/C=C/C=C/C[C@@H](C)O | 6.5 | 10.8 (≈ 6.29 µg/mL) | < 5.00 | – |
| CC1=C[C@H]2C[C@@H](C)CC[C@@H]2[C@@](C)(/C(O)=C2\C(=O)[C@@H](COCc3cn(Cc4ccc(C(=O)O)cc4)nn3)N(C)C2=O)[C@H]1/C=C/C=C/C[C@@H](C)O | – | 37 (≈ 24.9 µg/mL) | < 5.00 | – |
| C/C=C/C=C/[C@H]1C(C)=C[C@H]2C[C@@H](C)CC[C@@H]2[C@@]1(C)/C(O)=C1\C(=O)[C@H](CO)N(C)C1=O | – | 25 (≈ 10.3 µg/mL) | < 5.00 | – |
| CC1=C[C@H]2C[C@@H](C)CC[C@@H]2[C@@](C)(/C(O)=C2\C(=O)[C@H](COCc3cn(CCc4ccc(O)cc4)nn3)N(C)C2=O)[C@H]1/C=C/C=C/C[C@@H](C)O | 12.1 | 9.8 (≈ 6.46 µg/mL) | < 5.00 | – |
| C/C=C/[C@@H]1C=C[C@@H]2C[C@H](C)CC[C@H]2[C@]1(C)/C(O)=C1\C(=O)[C@@H](CO)N(C)C1=O | 11.5 | 2.1 (≈ 0.784 µg/mL) | < 5.00 | – |
| C#CCOC[C@@H]1C(=O)/C(=C(/O)[C@@]2(C)[C@@H](/C=C/C=C/C)C(C)=C[C@H]3C[C@@H](C)CC[C@@H]32)C(=O)N1C | – | 14 (≈ 6.32 µg/mL) | < 5.00 | – |
| C/C=C/C=C/[C@H]1C(C)=C[C@H]2C[C@@H](C)CC[C@@H]2[C@@]1(C)/C(O)=C1\C(=O)[C@@H](COCc2cn(CCCO)nn2)N(C)C1=O | – | 22.6 (≈ 12.5 µg/mL) | < 5.00 | – |
| C/C=C/C=C/[C@H]1C(C)=C[C@H]2C[C@@H](C)CC[C@@H]2[C@@]1(C)/C(O)=C1\C(=O)[C@@H](COCc2cn(CC3CCCO3)nn2)N(C)C1=O (stereo partly specified) | – | 12.5 (≈ 7.23 µg/mL) | 5.27 | – |
| CC1=C[C@H]2C[C@@H](C)CC[C@@H]2[C@@](C)(/C(O)=C2\C(=O)[C@H](COCc3cn(CCO)nn3)N(C)C2=O)[C@H]1/C=C/C=C/C[C@@H](C)O | – | > 40 | < 5.00 | – |
| C/C=C/C=C/[C@H]1C(C)=C[C@H]2C[C@@H](C)CC[C@@H]2[C@@]1(C)/C(O)=C1\C(=O)[C@@H](COCc2cn(Cc3cc(C)cc(C)c3)nn2)N(C)C1=O | – | 20.4 (≈ 12.5 µg/mL) | < 5.00 | – |
| C/C=C/C=C/[C@H]1C(C)=C[C@H]2C[C@@H](C)CC[C@@H]2[C@@]1(C)/C(O)=C1\C(=O)[C@H](COCc2cn(CCCCO)nn2)N(C)C1=O | – | 22.1 (≈ 12.5 µg/mL) | < 5.00 | – |
| C/C=C/C=C/[C@H]1C(C)=C[C@H]2C[C@@H](C)CC[C@@H]2[C@@]1(C)/C(O)=C1\C(=O)[C@@H](COCc2cn(Cc3c[nH]c4ccccc34)nn2)N(C)C1=O | 17.9 | 4.9 (≈ 3.06 µg/mL) | < 5.00 | – |
| CC1=C[C@H]2C[C@@H](C)CC[C@@H]2[C@@](C)(/C(O)=C2\C(=O)[C@@H](CO)N(C)C2=O)[C@H]1/C=C/[C@H](O)[C@H](C)O | – | > 50 | < 5.00 | – |
| C/C=C/C=C/[C@H]1C(C)=C[C@H]2C[C@@H](C)CC[C@@H]2[C@@]1(C)/C(O)=C1\C(=O)[C@@H](COCC=C(C)C)N(C)C1=O | 8.8 | 6.4 (≈ 3.08 µg/mL) | < 5.00 | – |
| C/C=C/C=C/[C@H]1C(C)=C[C@H]2C[C@@H](C)CC[C@@H]2[C@@]1(C)/C(O)=C1\C(=O)[C@@H](COCc2cn(CCO)nn2)N(C)C1=O | – | 23.2 (≈ 12.5 µg/mL) | < 5.00 | – |
| C/C=C/C=C/[C@H]1C(C)=C[C@H]2C[C@@H](C)CC[C@@H]2[C@@]1(C)/C(O)=C1\C(=O)[C@@H](COCc2ccccc2)N(C)C1=O | – | 24.8 (≈ 12.5 µg/mL) | < 5.00 | – |

| SMILES | selectivity ratio at 48 h [1] | MIC90 (Mycoplasma genitalium) [µM] | pEC50 (Trichomonas vaginalis) | selectivity ratio at 48 h [2] |
| --- | --- | --- | --- | --- |
| C/C=C/C=C/[C@H]1C(C)=C[C@H]2C[C@@H](C)CC[C@@H]2[C@@]1(C)C(=O)[C@H]1C(=O)N(C)[C@H](CO)[C@H]1O | 2.8 | 7.5 (≈ 3.12 µg/mL) | < 5.00 | – |
| C/C=C/C=C/[C@H]1C(C)=C[C@H]2C[C@@H](C)CC[C@@H]2[C@@]1(C)/C(O)=C1\C(=O)[C@H](COCc2cn(CC3CCCC3)nn2)N(C)C1=O | 7.9 | 5.4 (≈ 3.11 µg/mL) | < 5.00 | – |
| C/C=C/C=C/[C@H]1C(C)=C[C@H]2C[C@@H](C)CC[C@@H]2[C@@]1(C)/C(O)=C1\C(=O)[C@@H](COC(C)=O)N(C)C1=O | – | 12.5 (≈ 5.69 µg/mL) | < 5.00 | – |
| C/C=C/C=C/[C@H]1C(C)=C[C@H]2C[C@@H](C)CC[C@@H]2[C@@]1(C)/C(O)=C1\C(=O)[C@@H](COCc2cn(CC3CCCCO3)nn2)N(C)C1=O (stereo partly specified) | 8.1 | 5.2 (≈ 3.08 µg/mL) | < 5.00 | – |
| C/C=C/C=C/[C@H]1C(C)=C[C@H]2C[C@@H](C)CC[C@@H]2[C@@]1(C)/C(O)=C1\C(=O)[C@@H](COCc2cn(CC3CCCC3)nn2)N(C)C1=O | – | 10.9 (≈ 6.29 µg/mL) | < 5.00 | – |
| C/C=C/C=C/[C@H]1C(C)=C[C@H]2C[C@@H](C)CC[C@@H]2[C@@]1(C)/C(O)=C1\C(=O)[C@H](COCc2cn(CCCO)nn2)N(C)C1=O | – | 22.6 (≈ 12.5 µg/mL) | < 5.00 | – |
| CC1=C[C@H]2C[C@@H](C)CC[C@@H]2[C@@](C)(/C(O)=C2\C(=O)[C@@H](CO)N(C)C2=O)[C@H]1/C=C/[C@@H](O)[C@@H](C)O | – | 12.5 (≈ 5.59 µg/mL) | < 5.00 | – |
| C/C=C/C=C/[C@H]1C(C)=C[C@H]2C[C@@H](C)CC[C@@H]2[C@@]1(C)/C(O)=C1\C(=O)[C@H](COCc2cn(CC3CCCO3)nn2)N(C)C1=O (stereo partly specified) | – | 12.5 (≈ 7.23 µg/mL) | < 5.00 | – |
| C/C=C/C=C/[C@H]1C(C)=C[C@H]2C[C@@H](C)CC[C@@H]2[C@@]1(C)/C(O)=C1\C(=O)[C@@H](COCc2cn(CCc3ccc(O)cc3)nn2)N(C)C1=O | 6.1 | 5 (≈ 3.07 µg/mL) | < 5.00 | – |
| C/C=C/C=C/[C@H]1C(C)=C[C@H]2C[C@@H](C)CC[C@@H]2[C@@]1(C)[C@@H](O)[C@H]1C(=O)N(C)[C@H](CO)[C@H]1O | – | 30.1 (≈ 12.6 µg/mL) | < 5.00 | – |
| CC1=C[C@H]2C[C@@H](C)CC[C@@H]2[C@@](C)(/C(O)=C2\C(=O)[C@H](COCc3cn(Cc4ccc(C(=O)O)cc4)nn3)N(C)C2=O)[C@H]1/C=C/C=C/C[C@@H](C)O | – | > 37 | < 5.00 | – |
| C/C=C/C=C/[C@H]1C(C)=C[C@H]2C[C@@H](C)CC[C@@H]2[C@@]1(C)/C(O)=C1\C(=O)[C@@H](COCc2cn(CCCCC)nn2)N(C)C1=O | – | 22.1 (≈ 12.5 µg/mL) | < 5.00 | – |
| C/C=C/C=C/[C@H]1C(C)=C[C@H]2C[C@@H](C)CC[C@@H]2[C@@]1(C)/C(O)=C1\C(=O)[C@H](COCc2cn(CCCCC)nn2)N(C)C1=O | – | 22.1 (≈ 12.5 µg/mL) | < 5.00 | – |
| CC1=C[C@H]2C[C@@H](C)CC[C@@H]2[C@@](C)(/C(O)=C2\C(=O)[C@@H](COCc3cn(CCc4ccc(O)cc4)nn3)N(C)C2=O)[C@H]1/C=C/C=C/C[C@@H](C)O | – | 38.8 (≈ 25.6 µg/mL) | 5.27 | – |
| C/C=C/C=C/[C@H]1C(C)=C[C@H]2C[C@@H](C)CC[C@@H]2[C@@]1(C)/C(O)=C1\C(=O)[C@@H](COC)N(C)C1=O | 6.7 | 3.7 (≈ 1.58 µg/mL) | < 5.00 | – |
| CC1=C[C@H]2C[C@@H](C)CC[C@@H]2[C@@](C)(/C(O)=C2\C(=O)[C@@H](COCc3cn(CC4CCCCO4)nn3)N(C)C2=O)[C@H]1/C=C/C=C/C[C@@H](C)O (stereo partly specified) | – | 19.6 (≈ 12.5 µg/mL) | < 5.00 | – |
| CC1=C[C@H]2C[C@@H](C)CC[C@@H]2[C@@](C)(/C(O)=C2\C(=O)[C@H](CO)N(C)C2=O)[C@H]1/C=C/C=C/C[C@@H](C)O | – | 6.8 (≈ 3.11 µg/mL) | < 5.00 | – |
| C/C=C/C=C/[C@H]1C(C)=C[C@H]2C[C@@H](C)CC[C@@H]2[C@@]1(C)/C(O)=C1\C(=O)[C@H](COCc2cn(Cc3cc(C)cc(C)c3)nn2)N(C)C1=O | – | 20.4 (≈ 12.5 µg/mL) | < 5.00 | – |
| CC1=C[C@H]2C[C@@H](C)CC[C@@H]2[C@@](C)(/C(O)=C2\C(=O)[C@H](COCc3cn(CC4CCCCO4)nn3)N(C)C2=O)[C@H]1/C=C/C=C/C[C@@H](C)O (stereo partly specified) | – | – | – | 19.6 |
| C/C=C/C=C/[C@H]1C(C)=C[C@H]2C[C@@H](C)CC[C@@H]2[C@@]1(C)/C(O)=C1\C(=O)[C@H](COCc2cn(Cc3ccc(C(=O)O)cc3)nn2)N(C)C1=O | – | > 25 | 5.12 | – |
| C/C=C/C=C/[C@H]1C(C)=C[C@H]2C[C@@H](C)CC[C@@H]2[C@@]1(C)/C(O)=C1\C(=O)[C@H](COCc2cn(CCO)nn2)N(C)C1=O | 9.7 | 5.8 (≈ 3.12 µg/mL) | < 5.00 | – |
